US10975068B2, “6-aminopyridin-3-yl thiazoles as modulators of RORγT” (Janssen Pharmaceutica NV, priority 2016, dated 2021)
Where two headings read alike, the source gives them in different places.

What was measured:
[1] = biological target: human RORγt ligand binding domain (RORγt LBD) (Homo sapiens (Human), UniProt P51449); assay: RORγt ThermoFluor® assay (thermal shift binding); conditions: read-out: ThermoFluor® Assay, Kd
Outline: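 His-tagged human RORγt LBD (0.065 mg/mL) with 60 μM 1,8-ANS in 100 mM Hepes pH 7.0, 10 mM NaCl, 2.5 mM GSH, 0.002% Tween-20 was heated at 1 °C/min.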

full-length human RORγt = full-length human RORγt (Homo sapiens (Human), UniProt P51449); assay: RORγt (full-length human) reporter assay, Conditions B or C; format: cell-based; conditions: for inhibition at 3 µM: at 3 μM compound concentration; for RORγt (FL) Reporter Assay B or C, % inhibition (value marked *): marked *: footnote not given
full-length human RORγt, sequence (P51449 other isoform, or with tags, fused parts or gaps): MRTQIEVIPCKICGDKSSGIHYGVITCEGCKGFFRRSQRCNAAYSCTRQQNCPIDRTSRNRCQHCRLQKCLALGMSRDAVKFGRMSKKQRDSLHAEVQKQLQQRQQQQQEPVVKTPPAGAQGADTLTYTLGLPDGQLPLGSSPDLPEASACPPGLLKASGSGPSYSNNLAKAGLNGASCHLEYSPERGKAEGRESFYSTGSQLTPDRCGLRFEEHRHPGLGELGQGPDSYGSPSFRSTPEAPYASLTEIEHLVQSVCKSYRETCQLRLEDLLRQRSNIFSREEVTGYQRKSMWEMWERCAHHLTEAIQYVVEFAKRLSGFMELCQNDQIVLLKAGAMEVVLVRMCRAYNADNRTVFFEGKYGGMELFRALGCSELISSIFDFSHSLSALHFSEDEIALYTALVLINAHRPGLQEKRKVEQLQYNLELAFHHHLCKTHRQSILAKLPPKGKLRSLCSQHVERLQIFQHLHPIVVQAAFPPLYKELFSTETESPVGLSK
Outline: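 HEK293T cells transiently co-transfected with GAL4-DBD–full-length human RORγt (nt 142-1635, NM_001001523.1) plus GAL4-firefly and CMV-Renilla luciferase reporters; compounds added 4-6 h post-transfection for 16-20 h in 1.3% FBS, 0.1% DMSO. Firefly signal normalized to DMSO and saturating reference compound, then to Renilla; IC50 from concentration plots.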

[2] = read-out: RORγt (FL) Reporter Assay B or C, % inhibition
[3] = read-out: RORγt (FL) Reporter Assay B or C, IC50
[4] = Conditions B or C, read-out: RORγt (FL) Reporter Assay B or C, IC50
[5] = RORγt (FL) Reporter Assay B or C, IC50

human RORγt ligand binding domain (RORγt LBD), sequence (P51449 other isoform, or with tags, fused parts or gaps): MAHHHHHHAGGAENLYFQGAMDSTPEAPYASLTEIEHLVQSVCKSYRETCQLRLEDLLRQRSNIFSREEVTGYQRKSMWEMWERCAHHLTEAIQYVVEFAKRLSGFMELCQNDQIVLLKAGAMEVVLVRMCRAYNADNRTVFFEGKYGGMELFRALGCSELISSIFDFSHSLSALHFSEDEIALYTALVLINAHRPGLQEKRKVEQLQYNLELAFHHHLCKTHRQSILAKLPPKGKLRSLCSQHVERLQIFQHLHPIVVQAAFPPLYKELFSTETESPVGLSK

Kd [1]	IC50 (full-length human RORγt; [4])	RORγt (FL) Reporter Assay B or C, % inhibition (value marked *) (full-length human RORγt; Conditions B or C)	SMILES	inhibition at 3 µM (full-length human RORγt; [2])	further results
30 nM	–	–	C[C@H]1CCCN1C(=O)c1nc(C(=O)NCC(C)(C)O)sc1-c1cnc(NCC2CCC2)cc1C(F)F [Example 301, (S)-5-(6-((Cyclobutylmethyl)amino)-4-(difluoromethyl)pyridine-3-yl)-N-(2-hydroxy-2-methylpropyl)-4-(2-methylpyrrolidine-1-carbonyl)thiazole-2-carboxamide]	95%	IC50 (full-length human RORγt; [3]): 84 nM
0.29 nM	6.9 nM	–	C[C@H]1CCCCN1C(=O)c1nc(C(=O)NCC(C)(C)O)sc1-c1cnc(NC2CCCCC2)cc1C(F)F [Example 34, (S)-5-(6-(Cyclohexylamino)-4-(difluoromethyl)pyridin-3-yl)-N-(2-hydroxy-2-methylpropyl)-4-(2-methylpiperidine-1-carbonyl)thiazole-2-carboxamide]	–	inhibition at 6 µM (full-length human RORγt; read-out: RORγt (FL) Reporter Assay B or C, % inhibition @ 6 μM, Conditions B or C, @ 6 μM): 105%
2.2 nM	18 nM	105* %	C[C@H]1CCCN1C(=O)c1nc(C(=O)NCC(C)(C)O)sc1-c1cnc(NC(C2CC2)C2CC2)cc1C(F)F [Example 179, (S)-5-(6-((Dicyclopropylmethyl)amino)-4-(difluoromethyl)pyridine-3-yl)-N-(2-hydroxy-2-methylpropyl)-4-(2-methylpyrrolidine-1-carbonyl)thiazole-2-carboxamide]	–	–
6.2 nM	110 nM	114* %	C[C@H]1CCCN1C(=O)c1nc(C(=O)NCC(C)(C)O)sc1-c1cnc(NC2CCCC2(F)F)cc1C(F)(F)F (stereo partly drawn) [Example 127, 5-(6-((2,2-Difluorocyclopentyl)amino)-4-(trifluoromethyl)pyridin-3-yl)-N-(2-hydroxy-2-methylpropyl)-4-((S)-2-methylpyrrolidine-1-carbonyl)thiazole-2-carboxamide]	–	–
1.6 nM	47 nM	122* %	C[C@H](O)[C@H](C)NC(=O)c1nc(C(=O)N2CCC[C@@H]2C)c(-c2cnc(NC(C)(C)C)cc2C(F)(F)F)s1 (relative stereo) [Example 236, 5-(6-(tert-Butylamino)-4-(trifluoromethyl)pyridin-3-yl)-N-((2S*,3S*)-3-hydroxybutan-2-yl)-4-((S)-2-methylpyrrolidine-1-carbonyl)thiazole-2-carboxamide]	–	–
3.6 nM	24 nM	105* %	CC[C@@H](Nc1cc(C(F)F)c(-c2sc(C(=O)N[C@@H]3COC[C@H]3O)nc2C(=O)N2CCC[C@@H]2C)cn1)C(F)(F)F [Example 204, 5-(4-(Difluoromethyl)-6-(((1R)-1-(trifluoromethyl)propyl)amino)-3-pyridyl)-N-((3R,4S)-4-hydroxytetrahydrofuran-3-yl)-4-((2S)-2-methylpyrrolidine-1-carbonyl)thiazole-2-carboxamide]	–	–
0.43 nM	7.1 nM	–	C[C@H]1CC(F)(F)CN1C(=O)c1nc(C(=O)NCC(C)(C)O)sc1-c1cnc(NCC2(C(F)(F)F)CCC2)cc1C(F)(F)F [Example 118, (S)-4-(4,4-Difluoro-2-methylpyrrolidine-1-carbonyl)-N-(2-hydroxy-2-methylpropyl)-5-(4-(trifluoromethyl)-6-(((1-(trifluoromethyl)cyclobutyl)methyl)amino)pyridin-3-yl)thiazole-2-carboxamide]	–	RORγt (FL) Reporter Assay B or C, % inhibition (value marked ****) (full-length human RORγt; Conditions B or C, marked ****: footnote not shown): 109**** %
7.8 nM	45 nM	111* %	CC[C@H](Nc1cc(C(F)F)c(-c2sc(C(=O)N[C@H](C)[C@H](C)O)nc2C(=O)N2CCC[C@@H]2C)cn1)C(F)(F)F (relative stereo) [Example 218, 5-(4-(Difluoromethyl)-6-(((S)-1,1,1-trifluorobutan-2-yl)amino)pyridin-3-yl)-N-((2R*,3S*)-3-hydroxybutan-2-yl)-4-((S)-2-methylpyrrolidine-1-carbonyl)thiazole-2-carboxamide]	–	–
2.3 nM	31 nM	101* %	C[C@@H](O)[C@@H](C)NC(=O)c1nc(C(=O)N2CCC[C@@H]2C)c(-c2cnc(NC(C)(C)C)cc2C(F)(F)F)s1 (relative stereo) [Example 237, 5-(6-(tert-Butylamino)-4-(trifluoromethyl)pyridin-3-yl)-N-((2R*,3R*)-3-hydroxybutan-2-yl)-4-((S)-2-methylpyrrolidine-1-carbonyl)thiazole-2-carboxamide]	–	–
7.4 nM	–	–	C[C@H]1CCCN1C(=O)c1nc(C(=O)NCC(C)(C)O)sc1-c1cnc(NCC2(C)CC2)cc1C(F)(F)F [Example 278, N-(2-Hydroxy-2-methyl-propyl)-5-[6-[(1-methylcyclopropyl)methylamino]-4-(trifluoromethyl)-3-pyridyl]-4-[(2S)-2-methylpyrrolidine-1-carbonyl]thiazole-2-carboxamide]	100%	IC50 (full-length human RORγt; [3]): 40 nM

The remaining lines, values behind:

SMILES	Kd [1]	IC50 (full-length human RORγt; [4])	RORγt (FL) Reporter Assay B or C, % inhibition (value marked *) (full-length human RORγt; Conditions B or C)	inhibition at 3 µM (full-length human RORγt; [2])	further results
C[C@H](Nc1cc(C(F)F)c(-c2sc(C(=O)N[C@H]3CC[C@@H]3O)nc2C(=O)N2C3CCC2CC3)cn1)C(F)(F)F (relative stereo) [Example 292, 4-((1s,4s)-7-Azabicyclo[2.2.1]heptane-7-carbonyl)-5-(4-(difluoromethyl)-6-(((S)-1,1,1-trifluoropropan-2-yl)amino)pyridin-3-yl)-N-((1S*,2S*)-2-hydroxycyclobutyl)thiazole-2-carboxamide]	6.1 nM	–	–	106%	IC50 (full-length human RORγt; [3]): 40 nM
O=C(N[C@H]1CCC[C@@H]1O)c1nc(C(=O)N2C3CCC2CC3)c(-c2cnc(N[C@@H](C3CC3)C(F)(F)F)cc2C(F)F)s1 [Example 451, 4-(7-Azabicyclo[2.2.1]heptane-7-carbonyl)-5-[6-[[(1S)-1-cyclopropyl-2,2,2-trifluoro-ethyl]amino]-4-(difluoromethyl)-3-pyridyl]-N-[(1S,2S)-2-hydroxycyclopentyl]thiazole-2-carboxamide]	0.29 nM	–	–	99%	IC50 (full-length human RORγt; [3]): 290 nM
O=C(N[C@@H]1CC[C@@H](O)C1)c1nc(C(=O)N2C3CCC2CC3)c(-c2cnc(N[C@@H](C3CC3)C(F)(F)F)cc2C(F)F)s1 [Example 437, 4-((1s,4s)-7-Azabicyclo[2.2.1]heptane-7-carbonyl)-5-[6-[[(1S)-1-cyclopropyl-2,2,2-trifluoro-ethyl]amino]-4-(difluoromethyl)-3-pyridyl]-N-[(1R,3R)-3-hydroxycyclopentyl]thiazole-2-carboxamide]	0.44 nM	–	–	90%	IC50 (full-length human RORγt; [5]): 16 nM
CC(C)(C)Nc1cc(C(F)F)c(-c2sc(C(=O)N[C@H]3CC[C@H](O)C3)nc2C(=O)N2C3CCC2CC3)cn1 [Example 413, 4-((1s,4s)-7-Azabicyclo[2.2.1]heptane-7-carbonyl)-5-[6-(tert-butylamino)-4-(difluoromethyl)-3-pyridyl]-N-[(1S,3S)-3-hydroxycyclopentyl]thiazole-2-carboxamide]	0.82 nM	–	–	–	IC50 (full-length human RORγt; [5]): 20 nM; inhibition at 1 µM (full-length human RORγt; at 1 μM compound concentration, read-out: RORγt (FL) Reporter Assay B or C, % inhibition): 133%
O=C(N[C@@H]1CC[C@H]1O)c1nc(C(=O)N2C3CCC2CC3)c(-c2cnc(N[C@@H](C3CC3)C(F)(F)F)cc2C(F)F)s1 (relative stereo) [Example 443, 4-((1s,4s)-7-Azabicyclo[2.2.1]heptane-7-carbonyl)-5-(6-(((S)-1-cyclopropyl-2,2,2-trifluoroethyl)amino)-4-(difluoromethyl)pyridin-3-yl)-N-((1R*,2R*)-2-hydroxycyclobutyl)thiazole-2-carboxamide]	2.2 nM	–	–	107%	IC50 (full-length human RORγt; [3]): 16 nM
CCC(C)(C)Nc1cc(C(F)F)c(-c2sc(C(=O)NCC(C)(C)O)nc2C(=O)N2CCCC[C@@H]2C)cn1 [Example 95, (S)-5-(4-(Difluoromethyl)-6-(tert-pentylamino)pyridin-3-yl)-N-(2-hydroxy-2-methylpropyl)-4-(2-methylpiperidine-1-carbonyl)thiazole-2-carboxamide]	0.15 nM	9.5 nM	109* %	–	–
[2H]C([2H])(NC(=O)c1nc(C(=O)N2CCC[C@@H]2C)c(-c2cnc(NC(C)(C)C)cc2C(F)(F)F)s1)C(C)(C)O [Example 181, (S)-5-(6-(tert-Butylamino)-4-(trifluoromethyl)pyridine-3-yl)-N-(2-hydroxy-2-methylpropyl-1,1-d2)-4-(2-methylpyrrolidine-1-carbonyl)thiazole-2-carboxamide]	1.1 nM	8.5 nM	112* %	–	–
C[C@H](CO)NC(=O)c1nc(C(=O)N2C3CCC2CC3)c(-c2cnc(N[C@@H](C)C(F)(F)F)cc2C(F)F)s1 [Example 226, 4-((1s,4s)-7-Azabicyclo[2.2.1]heptane-7-carbonyl)-5-(4-(difluoromethyl)-6-(((1S)-2,2,2-trifluoro-1-methyl-ethyl)amino)-3-pyridyl)-N-((1R)-2-hydroxy-1-methyl-ethyl)thiazole-2-carboxamide]	14 nM	140 nM	94* %	–	–
